This is an account of results in patent US20250122181A1, “BENZIMIDAZOLES AS MODULATORS OF IL-17” (Janssen Pharmaceutica NV, priority 2021, published 2025).

Structures are written as SMILES.

Assay [1] deals with T1, IL-17A(FLAG-Tagged): IL-17RA(His-Tagged) (Homo sapiens, UniProt Q16552, K93Q). Kind of assay: IL-17A(FLAG-Tagged): IL-17RA(His-Tagged) Binding Disruption Eu-HTRF Assay, Protocol 2. As to conditions: Protocol 2, FLAG tagged IL-17A 1 nM; simple average if tested more than once. The text has this: An antibody directed against the FLAG tag of IL-17A (SEQ ID NO: 1) is labeled with the HTRF donor chromophore (Europium-cryptate). IL-17A is present as a dimer that is “locked into” this quaternary structure due to the formation of loop-spanning […] disulfide bridges. The construct of IL-17RA used in the assay excludes the […] portion of the receptor and is fused to a C-terminal 10×His tag (SEQ ID NO:2). An antibody directed against the His tag of the IL-17RA chimera is labeled with the HTRF acceptor chromophore (“D2”). The fluorescence-resonance energy transfer (FRET) depends on the vicinity of the donor chromophore to the acceptor, and interruption of the binding between the IL-17A and IL-17RA causes the reduction/loss of FRET. Therefore, this assay allows to evaluate the compound effect on the binding IL-17A and IL-17RA by monitoring the fluorescence intensity of donor vs acceptor. The assay was run using either Protocol 1 or Protocol 2 as described below.
Protocol 2. 40 nl of 2-fold serial diluted compound solution for total 22 dilution points is added into each well of a 1536-well, white, low-volume, non-binding plate (Greiner #782904), then 2 μl of FLAG tagged IL-17A at 2× final concentration (1 nM) in solution of PBS+0.01% Triton-X100 is added to each well. The assay plate is briefly centrifuged then incubated for 1 h at rt. A mixed solution is prepared containing 2×5 nM 10HIS×IL-17RA, 2×2.5 nM Eu-anti-FLAG (CISBIO), 2×5 nM D2-anti-HIS (CISBIO) in PBS+0.01% Triton-X100+200 mM Potassium Fluoride (Sigma 60238) and 2 μl of mix is added to each well of the assay plate. The plate is briefly centrifuged then incubated for 2 h at rt. The HTRF intensities at the wavelength of donor (615 nm) and acceptor (665 nm) are measured using BMG Pherastar. The ratio between intensities at two wavelengths is calculated and plotted against the compound concentration and the data is fitted to a one-site competition model to yield IC50 of the compound.
On the technique in general: In TR-FRET formats the signal depends on donor and acceptor labels being close together.

The target of assay [2] is T1, IL-17A(FLAG-Tagged): IL-17RA(His-Tagged). Kind of assay: IL-17A(FLAG-Tagged): IL-17RA(His-Tagged) Binding Disruption Eu-HTRF Assay, Protocol 1. Particulars: Protocol 1, FLAG tagged IL-17A 2.5 nM; simple average if tested more than once. The method, boiled down: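 IC50 came from a one-site competition fit of the acceptor/donor (665/620 nm) HTRF ratio. His-tagged IL-17RA, Eu-anti-FLAG and D2-anti-His were added after a 1 h rt compound preincubation with FLAG-tagged IL-17A dimer in PBS/0.01% Triton X-100, followed by 2 h at rt before reading.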

Assay [3] concerns IL-17A-induced G-CSF production in human normal keratinocyte (NHK). Kind of assay: NHK Assay: IL-17A-induced G-CSF production in human normal keratinocyte. It is filed as cell-based. As to conditions: 24 h, IL-17A 5 ng/mL, simple average if tested more than once. An outline of the steps:
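IC50 derives from G-CSF in supernatants, quantified by HTRF from a standard curve, with CellTiter-Glo viability compared to DMSO control. Before a 24 h, 37°C culture of normal human keratinocytes at 3000–4000 cells/well, compound dilutions were preincubated 1 h at rt with human IL-17A (5 ng/mL final), with 0.2% DMSO and 5% FBS.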

T1 sequence (Q16552 with tags, fused parts or gaps K93Q): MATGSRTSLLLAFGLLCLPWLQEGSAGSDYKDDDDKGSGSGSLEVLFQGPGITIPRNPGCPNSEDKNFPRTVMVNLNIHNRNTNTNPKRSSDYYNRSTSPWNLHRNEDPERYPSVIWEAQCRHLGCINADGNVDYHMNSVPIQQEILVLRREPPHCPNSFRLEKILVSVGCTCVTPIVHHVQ

Consider `COC[C@H](c1ccc2[nH]c(C(COC(C)(C)C(F)(F)F)NC(=O)c3ncnn3C(C)C)nc2c1)N1CC(F)(F)CNC1=O` (single isomer, unassigned) [Example 52, N—((R*)-1-(5-((S)-1-(5,5-Difluoro-2-oxotetrahydropyrimidin-1(2H)-yl)-2-methoxyethyl)-1H-benzo[d]imidazol-2-yl)-2-((1,1,1-trifluoro-2-methylpropan-2-yl)oxy)ethyl)-1-isopropyl-1H-1,2,4-triazole-5-carboxamide], for which the IC50 (usually the point on the concentration scale where inhibition reaches its midpoint) in assay [1] is less than 50 nM; in assay [2], less than 50 nM; in assay [3] (Homo sapiens, Keratinocyte) it was less than 50 nM.

For `[2H]C1([2H])[C@H](C(F)(F)F)NC(=O)N1[C@H](COC)c1ccc2[nH]c([C@H](COC(C)(C)C(F)(F)F)NC(=O)c3nonc3C)nc2c1` (relative stereo) [Example 54, N—((R*)-1-(5-((S)-2-methoxy-1-((R*)-2-oxo-4-(trifluoromethyl)imidazolidin-1-yl-5,5-d2)ethyl)-1H-benzo[d]imidazol-2-yl)-2-((1,1,1-trifluoro-2-methylpropan-2-yl)oxy)ethyl)-4-methyl-1,2,5-oxadiazole-3-carboxamide], the IC50 in assay [1] was less than 50 nM; in assay [2], less than 50 nM; in assay [3] (Homo sapiens, Keratinocyte), less than 50 nM.

Turning to `Cc1nonc1C(=O)N[C@H](c1nc2cc([C@@H](COC3CC3)N3C[C@@H](C(F)(F)F)NC3=O)ccc2[nH]1)[C@@H](C)OC1CC1` [Example 70, N-((1R,2R)-2-Cyclopropoxy-1-(5-((S)-2-cyclopropoxy-1-((S)-2-oxo-4-(trifluoromethyl)imidazolidin-1-yl)ethyl)-1H-benzo[d]imidazol-2-yl)propyl)-4-methyl-1,2,5-oxadiazole-3-carboxamide], the IC50 in assay [1] is less than 50 nM; in assay [3] (Homo sapiens, Keratinocyte), less than 50 nM.

As for `COC[C@H](c1ccc2[nH]c(C(NC(=O)c3nonc3C)[C@@H](C)OC(C)(C)C(F)(F)F)nc2c1)N1C[C@@H](C(F)(F)F)NC1=O` (single isomer, unassigned) [Example 74, N-[(1R*,2R)-1-[5-[(1S)-2-Methoxy-1-[(4S)-2-oxo-4-(trifluoromethyl)imidazolidin-1-yl]ethyl]-1H-benzimidazol-2-yl]-2-(2,2,2-trifluoro-1,1-dimethyl-ethoxy)propyl]-4-methyl-1,2,5-oxadiazole-3-carboxamide], the IC50 in assay [1] was less than 50 nM; in assay [3] (Homo sapiens, Keratinocyte) it was less than 50 nM.

As for `CC(C)n1ncc(F)c1C(=O)N[C@@H](COC(C)(C)C(F)(F)F)c1nc2cc(CN3CC(C(F)(F)F)NC3=O)ccc2[nH]1` (single isomer, unassigned) [Example 32, 4-Fluoro-1-isopropyl-N—((R)-1-(5-(((S*)-2-oxo-4-(trifluoromethyl)imidazolidin-1-yl)methyl)-1H-benzo[d]imidazol-2-yl)-2-((1,1,1-trifluoro-2-methylpropan-2-yl)oxy)ethyl)-1H-pyrazole-5-carboxamide], the IC50 in assay [1] is less than 50 nM; in assay [2], less than 50 nM; in assay [3] (Homo sapiens, Keratinocyte), 50 to 100 nM.

For the compound `Cc1nonc1C(=O)N[C@H](c1nc2cc([C@@H](COC3CC3)N3CC(F)(F)CNC3=O)ccc2[nH]1)[C@@H](C)OC1CC1` [Example 73, N-((1R,2R)-2-Cyclopropoxy-1-(5-((S)-2-cyclopropoxy-1-(5,5-difluoro-2-oxotetrahydropyrimidin-1(2H)-yl)ethyl)-1H-benzo[d]imidazol-2-yl)propyl)-4-methyl-1,2,5-oxadiazole-3-carboxamide], the IC50 was less than 50 nM in assay [1] and less than 50 nM in assay [3] (Homo sapiens, Keratinocyte).

In the case of `COC[C@H](c1ccc2nc(C(NC(=O)c3nonc3C3CC3)[C@@H](C)O[C@H](C)C(F)(F)F)[nH]c2c1F)N1C[C@@H](C(F)(F)F)NC1=O` (single isomer, unassigned) [Example 95, 4-Cyclopropyl-N-((1R*,2R)-1-(7-fluoro-6-((S)-2-methoxy-1-((S)-2-oxo-4-(trifluoromethyl)imidazolidin-1-yl)ethyl)-1H-benzo[d]imidazol-2-yl)-2-(((R)-1,1,1-trifluoropropan-2-yl)oxy)propyl)-1,2,5-oxadiazole-3-carboxamide], the IC50 in assay [1] and in assay [3] was less than 50 nM in each case.
